Source: patent US20190100534A1, “Cephem Compounds with Latent Reactive Groups” (Gladius Pharmaceuticals, Inc., priority 2017, published 2019)

Tests used:
Format in all cases: cell-based
[1] = tested on: Isogenic E. coli J58 strain carrying NDM-1; test: MIC determination, isogenic E. coli strains; conditions: Escherichia coli, 18 h, read-out: Mimimum Inhibitory Concentrations, NDM-1
Procedure: (§1) Sterile technique was used throughout these experiments. Suspensions of organisms were removed from storage (−80° C.) and partially thawed. Partially thawed organisms (1 μL) were inoculated into 3 mL sterile LB Broth in a sterile culture tube and capped, then cultured at 37° C. with shaking for 4-5 hours until the optical density at 600 nm (OD600) was greater than 0.1 on a single beam spectrophotometer.
(§2) The concentration of organisms was adjusted to 0.08-0.1 OD600 (0.5 McFarland units) by dilution with sterile cation-adjusted Meuller-Hinton (CAMH) broth. The suspensions were used within 30 minutes of preparation.
(§3) A stock solution was made of each test compound by measuring 6.4 mg of the compound on an analytical balance and dissolving it in DMSO (1 mL) to get a transparent solution. The solutions were stored at −20° C. and thawed prior to use.
(§4) Sterile CAMH broth (200 μL) containing 20 μM Apo-Transferrin was pipetted into the first row of 8 columns of a sterile, round-bottomed, transparent, 96-well microplate using an 8-channel pipette equipped with sterile tips. One hundred μL was pipetted into the wells of the remaining 11 rows.
(§5) With an 8-channel pipette equipped with sterile tips, 100 μL of the first row solution was transferred to the second row and mixed. The process was repeated for the second to third rows and continued through row 11. One hundred μL from row 11 was removed and discarded so that all 12 rows contained 100 μL. Row 12 contained no compound and rows 1-11 contained 64, 32, 16, 8, 4, 2, 1, 0.5, 0.25, 0.125, […] of a given compound.
(§6) Inoculant suspensions (0.5 μL) were added to the 12 wells of each column. The plates were then covered and incubated at 37° C. overnight for 18 hours.
(§7) For each organism the MIC was determined by identifying the transparent well with the lowest test compound concentration.
NDM-1 (Group 3a carbapenemase, broad spectrum divalent Zn^++ metallo-Beta-Lactamase);
(§8) The gene sequence for each beta-lactamase enzyme was synthesized and inserted into the pBC-SK(+) plasmid by GenScript, a commercial service. E. coli J53 was transformed with each plasmid via electroporation and resistant transformants were selected on agar plates containing 50 micrograms/mL ampicillin. The selected transformants were stored at −80 degrees C. in 20% glycerol.

[2] = tested on: Isogenic E. coli J58 strain carrying TEM-26; test: MIC determination, isogenic E. coli strains; conditions: Escherichia coli, 18 h, read-out: Mimimum Inhibitory Concentrations, TEM-26
Procedure: as §1, §2, §3, §4, §5, §6, §7
TEM-26 (Group 2be beta-lactamase, hydrolyzes extended spectrum cephalosporins and monobactams), [25];
as §8

[3] = tested on: Isogenic E. coli J58 strain carrying IMP-1; test: MIC determination, isogenic E. coli strains; conditions: Escherichia coli, 18 h, read-out: Mimimum Inhibitory Concentrations, IMP-1
Procedure: as §1, §2, §3, §4, §5, §6, §7
IMP-1 (Group 3a carbapenemase, metallo-beta-Lactamase).
as §8

[4] = tested on: Isogenic E. coli J58 strain carrying VIM-2; test: MIC determination, isogenic E. coli strains; conditions: Escherichia coli, 18 h, read-out: Mimimum Inhibitory Concentrations, VIM-2
Procedure: as §1, §2, §3, §4, §5, §6, §7
VIM-2 (Group 3a carbapenemase, metallo-beta-lactamase); and
as §8

[5] = tested on: Isogenic E. coli J58 strain carrying CTX-M-14; test: MIC determination, isogenic E. coli strains; conditions: Escherichia coli, 18 h, read-out: Mimimum Inhibitory Concentrations, CTX-M-14
Procedure: as §1, §2, §3, §4, §5, §6, §7
(§9) CTX-M-14 and CTX-M-15 (Class A, Group 2be beta-lactamases, hydrolyzes extended spectrum cephalosporins and monobactams);
as §8

[6] = tested on: Isogenic E. coli J58 strain carrying CTX-M-15; test: MIC determination, isogenic E. coli strains; conditions: Escherichia coli, 18 h, read-out: Mimimum Inhibitory Concentrations, CTX-M-15
Procedure: as §1, §2, §3, §4, §5, §6, §7, §9, §8

[7] = tested on: Isogenic E. coli J58 strain carrying SHV-1; test: MIC determination, isogenic E. coli strains; conditions: Escherichia coli, 18 h, read-out: Mimimum Inhibitory Concentrations, SHV-1
Procedure: as §1, §2, §3, §4, §5, §6, §7
SHV-1 (Class A, Group 2b beta-lactamase, hydrolyzes penicillins and early cephalosporins);
as §8

[8] = tested on: Pseudomonas aeruginosa PA (URMC-2); test: MIC determination; conditions: Pseudomonas aeruginosa, 18 h, read-out: Minimum Inhibitory Concentrations, PA (URMC-2)
Procedure: as §1, §2, §3, §4, §5, §6, §7

[9] = tested on: Pseudomonas aeruginosa PA-RR-(G8062859); test: MIC determination; conditions: Pseudomonas aeruginosa, 18 h, read-out: Minimum Inhibitory Concentrations, PA-RR-(G8062859)
Procedure: as §1, §2, §3, §4, §5, §6, §7

[10] = tested on: Pseudomonas aeruginosa (PA); test: MIC determination; conditions: Pseudomonas aeruginosa, 18 h, read-out: Minimum Inhibitory Concentrations, PA
Procedure: as §1, §2, §3, §4, §5, §6, §7

[11] = tested on: Pseudomonas aeruginosa PA (RR-2); test: MIC determination; conditions: Pseudomonas aeruginosa, 18 h, read-out: Minimum Inhibitory Concentrations, PA (RR-2)
Procedure: as §1, §2, §3, §4, §5, §6, §7

[12] = tested on: Pseudomonas aeruginosa PA (RR-1); test: MIC determination; conditions: Pseudomonas aeruginosa, 18 h, read-out: Minimum Inhibitory Concentrations, PA (RR-1)
Procedure: as §1, §2, §3, §4, §5, §6, §7

[13] = tested on: Pseudomonas aeruginosa PA-RR-(G7305586); test: MIC determination; conditions: Pseudomonas aeruginosa, 18 h, read-out: Minimum Inhibitory Concentrations, PA-RR-(G7305586)
Procedure: as §1, §2, §3, §4, §5, §6, §7

[14] = tested on: Pseudomonas aeruginosa PA (URMC-3); test: MIC determination; conditions: Pseudomonas aeruginosa, 18 h, read-out: Minimum Inhibitory Concentrations, PA (URMC-3)
Procedure: as §1, §2, §3, §4, §5, §6, §7

[15] = tested on: Pseudomonas aeruginosa PA-RR-(980151052); test: MIC determination; conditions: Pseudomonas aeruginosa, 18 h, read-out: Minimum Inhibitory Concentrations, PA-RR-(980151052)
Procedure: as §1, §2, §3, §4, §5, §6, §7

[16] = tested on: Pseudomonas aeruginosa PA-RR-(98023895); test: MIC determination; conditions: Pseudomonas aeruginosa, 18 h, read-out: Minimum Inhibitory Concentrations, PA-RR-(98023895)
Procedure: as §1, §2, §3, §4, §5, §6, §7

[17] = tested on: Pseudomonas aeruginosa PA-RR-(G7294437); test: MIC determination; conditions: Pseudomonas aeruginosa, 18 h, read-out: Minimum Inhibitory Concentrations, PA-RR-(G7294437)
Procedure: as §1, §2, §3, §4, §5, §6, §7

[18] = tested on: Pseudomonas aeruginosa PA-RR-(G7304100); test: MIC determination; conditions: Pseudomonas aeruginosa, 18 h, read-out: Minimum Inhibitory Concentrations, PA-RR-(G7304100)
Procedure: as §1, §2, §3, §4, §5, §6, §7

[19] = tested on: Pseudomonas aeruginosa PA-RR-(purple Fre D); test: MIC determination; conditions: Pseudomonas aeruginosa, CAMH broth, 20 μM Apo-Transferrin, 37° C., 18 hours, read-out: Minimum Inhibitory Concentrations, PA-RR-(purple Fre D)
Procedure: as §1, §2, §3, §4, §5, §6, §7

[20] = tested on: Isogenic E. coli J58 strain carrying DHA-1; test: MIC determination, isogenic E. coli strains; conditions: Escherichia coli, 18 h, read-out: Mimimum Inhibitory Concentrations, DHA-1
Procedure: as §1, §2, §3, §4, §5, §6, §7, §8

E. coli J53 Alone = test: MIC determination, isogenic E. coli strains
Procedure: as §1, §2, §3, §4, §5, §6, §7, §8

[21] = tested on: Isogenic E. coli J58 strain carrying KPC-2; test: MIC determination, isogenic E. coli strains; conditions: Escherichia coli, 18 h, read-out: Mimimum Inhibitory Concentrations, KPC-2
Procedure: as §1, §2, §3, §4, §5, §6, §7
(§10) KPC-2 and KPC-3 (Class A, Group 2f, carbapenemases);
as §8

[22] = tested on: Isogenic E. coli J58 strain carrying KPC-3; test: MIC determination, isogenic E. coli strains; conditions: Escherichia coli, 18 h, read-out: Mimimum Inhibitory Concentrations, KPC-3
Procedure: as §1, §2, §3, §4, §5, §6, §7, §10, §8

CC[N+]1(Cc2ccc(C=CC3=C(C(=O)O)N4C(=O)[C@@H](NC(=O)/C(=N\OC(C)(C)C(=O)O)c5csc(N)n5)[C@H]4SC3)cc2)CCc2cc(O)c(O)cc2C1 (mixture of isomers) [Compound 423, 2-(4-((E/Z)-2-((6R,7R)-7-((Z)-2-(2-aminothiazol-4-yl)-2-(((2-carboxypropan-2-yl)oxy)imino)acetamido)-2-carboxy-8-oxo-5-thia-1-azabicyclo[4.2.0]oct-2-en-3-yl)vinyl)benzyl)-2-ethyl-6,7-dihydroxy-1,2,3,4-tetrahydroisoquinolin-2-ium]
MIC [1]: > 64 µg/mL | MIC [2]: 2 µg/mL | MIC [3]: 32 µg/mL | MIC [4]: 0.5 µg/mL | MIC [5]: 2 µg/mL | MIC [6]: 2 µg/mL | MIC [7]: 2 µg/mL | MIC [8]: 2 µg/mL | MIC [9]: 2 µg/mL | MIC [10]: 2 µg/mL | MIC [11]: 2 µg/mL | MIC [12]: 2 µg/mL | MIC [13]: 8 µg/mL | MIC [14]: ≤ 0.06 µg/mL | MIC [15]: 2 µg/mL | MIC [16]: 8 µg/mL | MIC [17]: 0.5 µg/mL | MIC [18]: ≤ 0.06 µg/mL | MIC [19]: 1 µg/mL | MIC [20]: 1 µg/mL | MIC (E. coli J53 Alone; Escherichia coli, J53ALONE, 18 h, read-out: Mimimum Inhibitory Concentrations, J53 Alone): 0.25 µg/mL | Mimimum Inhibitory Concentrations, J53 Alone (E. coli J53 Alone; J53 Alone, Table 4-2, CAMH broth, 20 μM Apo-Transferrin, 37° C., 18 hours): 0.25 microgram/mL | MIC [21]: 8 µg/mL | MIC [22]: 4 µg/mL
